# Experimental data taken from the supplement of paper PMC10307832.
# Assays:
# Experiment in all cases: relative viability (nuclei count vs DMSO), 5 days (fraction); higher = more cells survive
# [1] = compound: C1CNCCC1C2=CC(=NN2)C3=CC=NC=C3 + C[C@@H](Oc1cc(-c2cnn(C3CCNCC3)c2)cnc1N)c1c(Cl)ccc(F)c1Cl [Crizotinib] (partner 1 µM)
# Summary of the method: (§1)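 Dosing by pin tool came one day after lung cancer cell lines were seeded in 1536-well plates, using either one drug or a fixed anchor-drug dose plus five library-drug doses (not always all listed) in √10 steps. After 5 days, nuclei were counted on 4× images. Relative viability is treated-well nuclei count divided by vehicle-well nuclei count, and values are medians of duplicate plates.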
# [2] = compound: C[C@@H](N)c1ccc(C(=O)Nc2ccnc3[nH]ccc23)cc1 + CC(=O)c1c(C)c2cnc(Nc3ccc(N4CCNCC4)cn3)nc2n(C2CCCC2)c1=O [Palbociclib] (partner 0.5 µM)
# Summary of the method: as §1
# Tanzisertib + Phenformin = compound: O[C@H]1CC[C@H](Nc2ncc3nc(Nc4c(F)cc(F)cc4F)n([C@H]4CCOC4)c3n2)CC1 [Tanzisertib] + N=C(N)NC(=N)NCCc1ccccc1 [Phenformin] (partner 250 µM)
# Summary of the method: as §1
# Tanzisertib + Olaparib = compound: O[C@H]1CC[C@H](Nc2ncc3nc(Nc4c(F)cc(F)cc4F)n([C@H]4CCOC4)c3n2)CC1 [Tanzisertib] + O=C(c1cc(Cc2n[nH]c(=O)c3ccccc23)ccc1F)N1CCN(C(=O)C2CC2)CC1 [Olaparib] (partner 8 µM)
# Summary of the method: as §1
cell line,measurement,setting,value
UMC-11,relative viability,[1]; first compound 0.08 µM,0.69
same,relative viability,[1]; first compound 0.8 µM,0.577
same,relative viability,[1]; first compound 2.53 µM,0.713
same,relative viability,[1]; first compound 8 µM,0.63
same,relative viability,[2]; first compound 0.1265 µM,0.334
same,relative viability,[2]; first compound 0.4 µM,0.306
same,relative viability,[2]; first compound 1.265 µM,0.29
same,relative viability,[2]; first compound 4 µM,0.318
same,relative viability,Tanzisertib + Phenformin; first compound 0.08 µM,0.339
same,relative viability,Tanzisertib + Phenformin; first compound 0.253 µM,0.35
same,relative viability,Tanzisertib + Phenformin; first compound 0.8 µM,0.342
same,relative viability,Tanzisertib + Phenformin; first compound 2.53 µM,0.351
same,relative viability,Tanzisertib + Phenformin; first compound 8 µM,0.37
same,relative viability,Tanzisertib + Olaparib; first compound 0.08 µM,0.355
same,relative viability,Tanzisertib + Olaparib; first compound 0.253 µM,0.412
same,relative viability,Tanzisertib + Olaparib; first compound 0.8 µM,0.411
same,relative viability,Tanzisertib + Olaparib; first compound 2.53 µM,0.501
same,relative viability,Tanzisertib + Olaparib; first compound 8 µM,0.388
